From patent US6992079B2, “Substituted 11-phenyl-dibenzazepine compounds useful for the treatment or prevention of diseases characterized by abnormal cell proliferation” (President Fellows of Harvard College, priority 1997, dated 2006)
Where two headings read alike, the source gives them in different places.

Key:
MDA-N = assay: In-Vitro Testing SRB panel: Breast Cancer; type: cell-based; conditions: 48 h
OVCAR-8 = assay: In-Vitro Testing SRB panel: Ovarian Cancer; type: cell-based; conditions: OVCAR-8, 48 h
MOLT-4 = assay: In-Vitro Testing SRB panel: Leukemia; type: cell-based; conditions: MOLT-4, 48 h
DU-145 = assay: In-Vitro Testing SRB panel: Prostate Cancer; type: cell-based; conditions: DU-145, 48 h
HS 578T = assay: In-Vitro Testing SRB panel: Breast Cancer; type: cell-based; conditions: 48 h
TK-10 = assay: In-Vitro Testing SRB panel: Renal Cancer; type: cell-based; conditions: TK-10, 48 h
SN12C = assay: In-Vitro Testing SRB panel: Renal Cancer; type: cell-based; conditions: 48 h
NCI-H460 = type: cell-based; conditions: NCI-H460, 48 h
[1] = tested on: H460 large cell lung carcinoma; assay: Mouse xenograft tumor growth; type: in vivo, CD-1 nude mice
A549/ATCC = type: cell-based
SK-MEL-2B = assay: In-Vitro Testing SRB panel: Melanoma; type: cell-based; conditions: 48 h
MALM-3M = assay: In-Vitro Testing SRB panel: Melanoma; type: cell-based; conditions: 48 h
HCT-15 = assay: In-Vitro Testing SRB panel: Colon Cancer; type: cell-based; conditions: HCT-15, 48 h
OVCAR-5 = assay: In-Vitro Testing SRB panel: Ovarian Cancer; type: cell-based; conditions: OVCAR-5, 48 h
CCRF-CEM = assay: In-Vitro Testing SRB panel: Leukemia; type: cell-based; conditions: 48 h
NCI-H522 = type: cell-based; conditions: NCI-H522, 48 h
OVCAR-4 = assay: In-Vitro Testing SRB panel: Ovarian Cancer; type: cell-based; conditions: OVCAR-4, 48 h
SW-620 = assay: In-Vitro Testing SRB panel: Colon Cancer; type: cell-based; conditions: SW-620, 48 h
[2] = Homo sapiens, read-out: LC50 (the source's name)

Structure (SMILES): O=C(c1ccc([N+](=O)[O-])cc1)N1Cc2ccccc2C(c2ccccc2Cl)c2ccccc21 (centres unmarked) [Compound 28, N-(4′-Nitrobenzoyl)-11-(2′-chlorophenyl)-5,6-dihydro-11H-dibenz[b,e]azepine]
- TGI (MDA-N): >1.00E−04 Molar
- GI50 (MDA-N; Homo sapiens): 1.17 µM
- CC50 (MDA-N; [2]): > 100 µM
- Percent Growth (MDA-N; log10 conc −4.0 Molar): 7%
- Percent Growth (MDA-N; log10 conc −5.0 Molar): 23%
- Percent Growth (MDA-N; log10 conc −6.0 Molar): 52%
- Percent Growth (MDA-N; log10 conc −7.0 Molar): 94%
- Percent Growth (MDA-N; log10 conc −8.0 Molar): 99%
- GI50 (OVCAR-8; Homo sapiens): 2.86 µM
- CC50 (OVCAR-8; [2]): > 100 µM
- TGI (OVCAR-8): >1.00E−04 Molar
- Percent Growth (OVCAR-8; log10 conc −4.0 Molar): 28%
- Percent Growth (OVCAR-8; log10 conc −5.0 Molar): 33%
- Percent Growth (OVCAR-8; log10 conc −6.0 Molar): 64%
- Percent Growth (OVCAR-8; log10 conc −7.0 Molar): 102%
- Percent Growth (OVCAR-8; log10 conc −8.0 Molar): 105%
- GI50 (MOLT-4; Homo sapiens): 0.7 µM
- CC50 (MOLT-4; [2]): > 100 µM
- TGI (MOLT-4): >1.00E−04 Molar
- Percent Growth (MOLT-4; log10 conc −4.0 Molar): 24%
- Percent Growth (MOLT-4; log10 conc −5.0 Molar): 24%
- Percent Growth (MOLT-4; log10 conc −6.0 Molar): 44%
- Percent Growth (MOLT-4; log10 conc −7.0 Molar): 82%
- Percent Growth (MOLT-4; log10 conc −8.0 Molar): 109%
- TGI (DU-145): >1.00E−04 Molar
- Percent Growth (DU-145; log10 conc −4.0 Molar): 27%
- Percent Growth (DU-145; log10 conc −5.0 Molar): 30%
- Percent Growth (DU-145; log10 conc −6.0 Molar): 54%
- Percent Growth (DU-145; log10 conc −7.0 Molar): 98%
- Percent Growth (DU-145; log10 conc −8.0 Molar): 100%
- GI50 (DU-145; Homo sapiens): 1.52 µM
- CC50 (DU-145; [2]): > 100 µM
- TGI (HS 578T; HS 578T): >1.00E−04 Molar
- Percent Growth (HS 578T; HS 578T, log10 conc −4.0 Molar): 42%
- Percent Growth (HS 578T; HS 578T, log10 conc −5.0 Molar): 121%
- Percent Growth (HS 578T; HS 578T, log10 conc −6.0 Molar): 125%
- Percent Growth (HS 578T; HS 578T, log10 conc −7.0 Molar): 187%
- Percent Growth (HS 578T; HS 578T, log10 conc −8.0 Molar): 193%
- GI50 (HS 578T; Homo sapiens, Hs-578T): 80.2 µM
- CC50 (HS 578T; Homo sapiens, HS 578T, read-out: LC50 (the source's name)): > 100 µM
- GI50 (TK-10; Homo sapiens): 51.3 µM
- CC50 (TK-10; [2]): > 100 µM
- TGI (TK-10): >1.00E−04 Molar
- Percent Growth (TK-10; log10 conc −4.0 Molar): 48%
- Percent Growth (TK-10; log10 conc −5.0 Molar): 54%
- Percent Growth (TK-10; log10 conc −6.0 Molar): 76%
- Percent Growth (TK-10; log10 conc −7.0 Molar): 93%
- Percent Growth (TK-10; log10 conc −8.0 Molar): 102%
- TGI (SN12C): >1.00E−04 Molar
- GI50 (SN12C; Homo sapiens): 4.52 µM
- CC50 (SN12C; [2]): > 100 µM
- Percent Growth (SN12C; log10 conc −4.0 Molar): 23%
- Percent Growth (SN12C; log10 conc −5.0 Molar): 36%
- Percent Growth (SN12C; log10 conc −6.0 Molar): 77%
- Percent Growth (SN12C; log10 conc −7.0 Molar): 103%
- Percent Growth (SN12C; log10 conc −8.0 Molar): 100%
- GI50 (NCI-H460; Homo sapiens): 3.65 µM
- CC50 (NCI-H460; [2]): > 100 µM
- TGI (NCI-H460): >1.00E−04 Molar
- Percent Growth (NCI-H460; log10 conc −4.0 Molar): 15%
- Percent Growth (NCI-H460; log10 conc −5.0 Molar): 12%
- Percent Growth (NCI-H460; log10 conc −6.0 Molar): 18%
- Percent Growth (NCI-H460; log10 conc −7.0 Molar): 92%
- Percent Growth (NCI-H460; log10 conc −8.0 Molar): 97%
- tumor growth [1]: significantly inhibited tumor growth
- TGI (A549/ATCC; A549/ATCC, 48 h): >1.00E−04 Molar
- Percent Growth (A549/ATCC; A549/ATCC, log10 conc −4.0 Molar, 48 h): 14%
- Percent Growth (A549/ATCC; A549/ATCC, log10 conc −5.0 Molar, 48 h): 20%
- Percent Growth (A549/ATCC; A549/ATCC, log10 conc −6.0 Molar, 48 h): 49%
- Percent Growth (A549/ATCC; A549/ATCC, log10 conc −7.0 Molar, 48 h): 92%
- Percent Growth (A549/ATCC; A549/ATCC, log10 conc −8.0 Molar, 48 h): 97%
- GI50 (A549/ATCC; Homo sapiens, A549, 48 h): 0.937 µM
- CC50 (A549/ATCC; Homo sapiens, A549/ATCC, 48 h, read-out: LC50 (the source's name)): > 100 µM
- GI50 (SK-MEL-2B; Homo sapiens): > 100 µM
- CC50 (SK-MEL-2B; Homo sapiens, SK-MEL-2B, read-out: LC50 (the source's name)): > 100 µM
- TGI (SK-MEL-2B; SK-MEL-2B): >1.00E−04 Molar
- Percent Growth (SK-MEL-2B; SK-MEL-2B, log10 conc −4.0 Molar): 50%
- Percent Growth (SK-MEL-2B; SK-MEL-2B, log10 conc −5.0 Molar): 56%
- Percent Growth (SK-MEL-2B; SK-MEL-2B, log10 conc −6.0 Molar): 72%
- Percent Growth (SK-MEL-2B; SK-MEL-2B, log10 conc −7.0 Molar): 97%
- Percent Growth (SK-MEL-2B; SK-MEL-2B, log10 conc −8.0 Molar): 39%
- GI50 (MALM-3M; Homo sapiens): 49.6 µM
- CC50 (MALM-3M; Homo sapiens, MALM-3M, read-out: LC50 (the source's name)): > 100 µM
- TGI (MALM-3M; MALM-3M): >1.00E−04 Molar
- Percent Growth (MALM-3M; MALM-3M, log10 conc −4.0 Molar): 39%
- Percent Growth (MALM-3M; MALM-3M, log10 conc −5.0 Molar): 76%
- Percent Growth (MALM-3M; MALM-3M, log10 conc −6.0 Molar): 79%
- Percent Growth (MALM-3M; MALM-3M, log10 conc −7.0 Molar): 85%
- Percent Growth (MALM-3M; MALM-3M, log10 conc −8.0 Molar): 92%
- TGI (HCT-15): >1.00E−04 Molar
- Percent Growth (HCT-15; log10 conc −4.0 Molar): 29%
- Percent Growth (HCT-15; log10 conc −5.0 Molar): 28%
- Percent Growth (HCT-15; log10 conc −6.0 Molar): 40%
- Percent Growth (HCT-15; log10 conc −7.0 Molar): 86%
- Percent Growth (HCT-15; log10 conc −8.0 Molar): 99%
- GI50 (HCT-15; Homo sapiens): 0.608 µM
- CC50 (HCT-15; [2]): > 100 µM
- GI50 (OVCAR-5; Homo sapiens): > 100 µM
- CC50 (OVCAR-5; [2]): > 100 µM
- TGI (OVCAR-5): >1.00E−04 Molar
- Percent Growth (OVCAR-5; log10 conc −4.0 Molar): 68%
- Percent Growth (OVCAR-5; log10 conc −5.0 Molar): 75%
- Percent Growth (OVCAR-5; log10 conc −6.0 Molar): 91%
- Percent Growth (OVCAR-5; log10 conc −7.0 Molar): 96%
- Percent Growth (OVCAR-5; log10 conc −8.0 Molar): 110%
- TGI (CCRF-CEM): 2.99E−06 Molar
- GI50 (CCRF-CEM; Homo sapiens): 0.0909 µM
- CC50 (CCRF-CEM; [2]): > 100 µM
- Percent Growth (CCRF-CEM; log10 conc −4.0 Molar): −3%
- Percent Growth (CCRF-CEM; log10 conc −5.0 Molar): −11%
- Percent Growth (CCRF-CEM; log10 conc −6.0 Molar): 10%
- Percent Growth (CCRF-CEM; log10 conc −7.0 Molar): 49%
- Percent Growth (CCRF-CEM; log10 conc −8.0 Molar): 66%
- GI50 (NCI-H522; Homo sapiens): 0.337 µM
- CC50 (NCI-H522; [2]): > 100 µM
- TGI (NCI-H522): >2.72E−05 Molar
- Percent Growth (NCI-H522; log10 conc −4.0 Molar): −16%
- Percent Growth (NCI-H522; log10 conc −5.0 Molar): 12%
- Percent Growth (NCI-H522; log10 conc −6.0 Molar): 13%
- Percent Growth (NCI-H522; log10 conc −7.0 Molar): 91%
- Percent Growth (NCI-H522; log10 conc −8.0 Molar): 99%
- GI50 (OVCAR-4; Homo sapiens): 0.974 µM
- CC50 (OVCAR-4; [2]): > 100 µM
- TGI (OVCAR-4): >1.00E−04 Molar
- Percent Growth (OVCAR-4; log10 conc −4.0 Molar): 10%
- Percent Growth (OVCAR-4; log10 conc −5.0 Molar): 16%
- Percent Growth (OVCAR-4; log10 conc −6.0 Molar): 50%
- Percent Growth (OVCAR-4; log10 conc −7.0 Molar): 80%
- Percent Growth (OVCAR-4; log10 conc −8.0 Molar): 98%
- GI50 (SW-620; Homo sapiens): 7.13 µM
- CC50 (SW-620; [2]): > 100 µM
- TGI (SW-620): >1.00E−04 Molar
- Percent Growth (SW-620; log10 conc −4.0 Molar): 42%
- Percent Growth (SW-620; log10 conc −5.0 Molar): 47%
- Percent Growth (SW-620; log10 conc −6.0 Molar): 65%
- Percent Growth (SW-620; log10 conc −7.0 Molar): 94%
- Percent Growth (SW-620; log10 conc −8.0 Molar): 112%
